The target in this assay is T1, Human complement C1s enzyme (Homo sapiens, UniProt P09871).
T1 sequence (P09871 438-688 limits assumed): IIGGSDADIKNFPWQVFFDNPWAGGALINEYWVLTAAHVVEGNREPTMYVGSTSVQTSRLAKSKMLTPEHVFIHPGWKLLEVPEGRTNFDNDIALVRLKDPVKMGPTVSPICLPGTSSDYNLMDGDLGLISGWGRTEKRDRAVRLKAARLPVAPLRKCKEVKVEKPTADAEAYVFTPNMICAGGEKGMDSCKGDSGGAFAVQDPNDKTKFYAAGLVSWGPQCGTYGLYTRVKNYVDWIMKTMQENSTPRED
T1 sequence (P09871 16-437 partner limits assumed): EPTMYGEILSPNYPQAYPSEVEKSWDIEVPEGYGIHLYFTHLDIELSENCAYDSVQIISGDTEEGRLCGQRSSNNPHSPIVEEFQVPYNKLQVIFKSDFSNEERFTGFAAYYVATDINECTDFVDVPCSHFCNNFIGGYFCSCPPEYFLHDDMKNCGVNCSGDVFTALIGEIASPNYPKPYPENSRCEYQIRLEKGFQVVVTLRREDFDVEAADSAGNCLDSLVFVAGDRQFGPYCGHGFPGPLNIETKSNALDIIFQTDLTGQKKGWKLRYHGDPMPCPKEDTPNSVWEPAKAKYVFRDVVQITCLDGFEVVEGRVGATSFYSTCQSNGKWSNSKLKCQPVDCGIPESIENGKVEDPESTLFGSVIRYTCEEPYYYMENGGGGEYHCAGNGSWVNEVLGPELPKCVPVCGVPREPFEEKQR
The assay is described as follows: Human C1s enzyme assay. To be noted: human complement C1s enzyme 1.16 nM, substrate Z-L-Lys-SBzl 100 μM, 5 min preincubation; read-out: IC50 (Stars), C1s Inhibiting Activity. It is filed as biochemical. Put shortly:
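Serum-purified human C1s (1.16 nM final) preincubated 5 min at room temperature with compound in 50 mM Tris, 1 M NaCl, pH 7.5. Z-L-Lys-SBzl and DTNB added at 100 μM each; A405 followed every 30 s for 30 min, and IC50 obtained by nonlinear regression of reaction rates.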

With `Cc1ccc(-c2cnc(C(=O)NCC(=O)N3CC4(C[C@H]3C(=O)NCc3cc5cnccc5[nH]3)OCCO4)c(F)c2)cc1` [Compound 108, (S)-N-((1H-pyrrolo[3,2-c]pyridin-2-yl)methyl)-7-((3-fluoro-5-(p-tolyl)picolinoyl)glycyl)-1,4-dioxa-7-azaspiro[4.4]nonane-8-carboxamide], the half-maximal inhibitory concentration (IC50) fell in the range of 100 to 1000 nM.

With `C[C@@]12C[C@@H]1N(C(=O)CNC(=O)CCCOc1ccccc1)[C@H](C(=O)NC1(c3nc4cnccc4[nH]3)CC1)C2` [Compound 109, (1S,3S,5S)-N-(1-(1H-imidazo[4,5-c]pyridin-2-yl)cyclopropyl)-5-methyl-2-((4-phenoxybutanoyl)glycyl)-2-azabicyclo[3.1.0]hexane-3-carboxamide], the IC50 was over 1000 nM.

In the case of `Cc1nc(N)ccc1CNC(=O)[C@@H]1C[C@]2(C)C[C@@H]2N1C(=O)CNC(=O)c1ccc2c(c1)Oc1ccccc1S2` [Compound 110, (1S,3S,5S)-N-((6-amino-2-methylpyridin-3-yl)methyl)-5-methyl-2-((phenoxathiine-3-carbonyl)glycyl)-2-azabicyclo[3.1.0]hexane-3-carboxamide], the IC50 was over 1000 nM.

As for `O=C(NCC(=O)N1CC2(C[C@H]1C(=O)NCc1cc3cnccn3c1)OCCO2)c1ccc2c(c1)Oc1ccccc1S2` [Compound 111, 7-{2-[(Phenoxathiine-3-carbonyl)-amino]-acetyl}-1,4-dioxa-7-aza-spiro[4.4]nonane-8-carboxylic acid (pyrrolo[1,2-a]pyrazin-7-ylmethyl)-amide], the IC50 is under 100 nM.

Take `C[C@@]12C[C@@H]1N(C(=O)CNC(=O)c1ccc3c(c1)Oc1ccccc1S3)[C@H](C(=O)NCc1cc3c(s1)CNCC3)C2` [Compound 112, (1S,3S,5S)-5-methyl-2-((phenoxathiine-3-carbonyl)glycyl)-N-((4,5,6,7-tetrahydrothieno[2,3-c]pyridin-2-yl)methyl)-2-azabicyclo[3.1.0]hexane-3-carboxamide]: the IC50 is under 100 nM.

On to `C[C@@H](NC(=O)[C@@H]1C[C@]2(C)C[C@@H]2N1C(=O)CN1Cc2cc(-c3ccc(F)cc3F)ccc2C1=O)c1cc2cnccc2[nH]1` [Compound 113, (1S,3S,5S)-N-((R)-1-(1H-pyrrolo[3,2-c]pyridin-2-yl)ethyl)-2-(2-(5-(2,4-difluorophenyl)-1-oxoisoindolin-2-yl)acetyl)-5-methyl-2-azabicyclo[3.1.0]hexane-3-carboxamide], for which the IC50 is under 100 nM.

For the compound `C[C@@H](NC(=O)[C@@H]1CC2(CN1C(=O)CNC(=O)c1ccc(-c3ccccc3)cn1)OCCO2)c1cc2cnccc2[nH]1` [Compound 114, (S)-N-((R)-1-(1H-pyrrolo[3,2-c]pyridin-2-yl)ethyl)-7-((5-phenylpicolinoyl)glycyl)-1,4-dioxa-7-azaspiro[4.4]nonane-8-carboxamide], the IC50 fell in the range of 100 to 1000 nM.

Take `Cc1ccc(-c2cnc(C(=O)NCC(=O)N3CC4(C[C@H]3C(=O)N[C@H](C)c3cc5cnccc5[nH]3)OCCO4)c(F)c2)cc1` [Compound 115, (S)-N-((R)-1-(1H-pyrrolo[3,2-c]pyridin-2-yl)ethyl)-7-((3-fluoro-5-(p-tolyl)picolinoyl)glycyl)-1,4-dioxa-7-azaspiro[4.4]nonane-8-carboxamide]: the IC50 is over 1000 nM.

Take `C[C@@H](NC(=O)[C@@H]1C[C@]2(C)C[C@@H]2N1C(=O)CN1Cc2cc(-c3ccc(F)cc3)ccc2C1=O)c1cc2cnccc2[nH]1` [Compound 116, (1S,3S,5S)-N-((R)-1-(1H-pyrrolo[3,2-c]pyridin-2-yl)ethyl)-2-(2-(5-(4-fluorophenyl)-1-oxoisoindolin-2-yl)acetyl)-5-methyl-2-azabicyclo[3.1.0]hexane-3-carboxamide]: the IC50 was over 1000 nM.

As to `O=C(NCC(=O)N1CC2(C[C@H]1C(=O)NCc1cc3cnccc3[nH]1)OCCO2)c1ccc(-c2ccc(F)cc2F)cc1` [Compound 117, (S)-N-((1H-pyrrolo[3,2-c]pyridin-2-yl)methyl)-7-((2′,4′-difluoro-[1,1′-biphenyl]-4-carbonyl)glycyl)-1,4-dioxa-7-azaspiro[4.4]nonane-8-carboxamide], the IC50 is 100 to 1000 nM.

As for `O=C(NCC(=O)N1C[C@H](OC(F)F)C[C@H]1C(=O)O)c1ccc(Oc2ccccc2)cc1` [Compound 118, (2S,4R)-4-(difluoromethoxy)-1-((4-phenoxybenzoyl)glycyl) pyrrolidine-2-carboxylic acid], the IC50 is over 1000 nM.

Consider `O=C(NCC(=O)N1CC2(C[C@H]1C(=O)O)OCCO2)c1ccc(Oc2ccccc2)cc1` [Compound 119, (S)-7-((4-phenoxybenzoyl)glycyl)-1,4-dioxa-7-azaspiro[4.4]nonane-8-carboxylic acid], for which the IC50 is over 1000 nM.

Consider `O=C(NCc1cc2cnccc2[nH]1)[C@@H]1CC2(CN1C(=O)CN1Cc3cc(-c4ccc(F)cc4F)ccc3C1=O)OCCO2` [Compound 120, (S)-N-((1H-pyrrolo[3,2-c]pyridin-2-yl)methyl)-7-(2-(5-(2,4-difluorophenyl)-1-oxoisoindolin-2-yl)acetyl)-1,4-dioxa-7-azaspiro[4.4]nonane-8-carboxamide], for which the IC50 was under 100 nM.

Take `O=C(NCc1cc2cnccc2[nH]1)[C@@H]1CC2(CN1C(=O)CN1Cc3cc(-c4ccc(F)cc4)ccc3C1=O)OCCO2` [Compound 121, (S)-N-((1H-pyrrolo[3,2-c]pyridin-2-yl)methyl)-7-(2-(5-(4-fluorophenyl)-1-oxoisoindolin-2-yl)acetyl)-1,4-dioxa-7-azaspiro[4.4]nonane-8-carboxamide]: the IC50 was 100 to 1000 nM.

For the compound `C[C@@H](NC(=O)[C@@H]1CC2(CN1C(=O)CN1Cc3cc(-c4ccc(F)cc4F)ccc3C1=O)OCCO2)c1cc2cnccc2[nH]1` [Compound 122, (S)-N-((R)-1-(1H-pyrrolo[3,2-c]pyridin-2-yl)ethyl)-7-(2-(5-(2,4-difluorophenyl)-1-oxoisoindolin-2-yl)acetyl)-1,4-dioxa-7-azaspiro[4.4]nonane-8-carboxamide], the IC50 is 100 to 1000 nM.

In the case of `C[C@@H](NC(=O)[C@@H]1CC2(CN1C(=O)CN1Cc3cc(-c4ccc(F)cc4)ccc3C1=O)OCCO2)c1cc2cnccc2[nH]1` [Compound 123, (S)-N-((R)-1-(1H-pyrrolo[3,2-c]pyridin-2-yl)ethyl)-7-(2-(5-(4-fluorophenyl)-1-oxoisoindolin-2-yl)acetyl)-1,4-dioxa-7-azaspiro[4.4]nonane-8-carboxamide], the IC50 lay within 100 to 1000 nM.

With `C[C@@H](NC(=O)[C@@H]1C[C@@H](OC(F)F)CN1C(=O)CN1Cc2cc(-c3ccc(F)cc3Cl)ccc2C1=O)c1cc2cnccc2[nH]1` [Compound 124, (2S,4R)-N-((R)-1-(1H-pyrrolo[3,2-c]pyridin-2-yl)ethyl)-1-(2-(5-(2-chloro-4-fluorophenyl)-1-oxoisoindolin-2-yl)acetyl)-4-(difluoromethoxy)pyrrolidine-2-carboxamide], the IC50 is under 100 nM.

With `O=C(NCc1cc2cnccc2[nH]1)[C@@H]1CC2(CN1C(=O)CN1Cc3ccc(-c4ccc(F)cc4F)cc3C1=O)OCCO2` [Compound 125, (S)-N-((1H-pyrrolo[3,2-c]pyridin-2-yl)methyl)-7-(2-(6-(2,4-difluorophenyl)-1-oxoisoindolin-2-yl)acetyl)-1,4-dioxa-7-azaspiro[4.4]nonane-8-carboxamide], the IC50 was under 100 nM.

On to `C[C@@H](NC(=O)[C@@H]1CC2(CN1C(=O)CN1Cc3ccc(-c4ccc(F)cc4F)cc3C1=O)OCCO2)c1cc2cnccc2[nH]1` [Compound 126, (S)-N-((R)-1-(1H-pyrrolo[3,2-c]pyridin-2-yl)ethyl)-7-(2-(6-(2,4-difluorophenyl)-1-oxoisoindolin-2-yl)acetyl)-1,4-dioxa-7-azaspiro[4.4]nonane-8-carboxamide], for which the IC50 was under 100 nM.

Consider `O=C(NCC(=O)N1C[C@H](OC(F)F)C[C@H]1C(=O)NCc1cc2cnccc2[nH]1)c1cccc(Oc2ccccc2)c1` [Compound 127, (2S,4R)-N-((1H-pyrrolo[3,2-c]pyridin-2-yl)methyl)-4-(difluoromethoxy)-1-((3-phenoxybenzoyl)glycyl)pyrrolidine-2-carboxamide], for which the IC50 was under 100 nM.

Regarding `O=C(NCC(=O)N1C[C@H](OC(F)F)C[C@H]1C(=O)N[C@@H](CO)c1cc2cnccc2[nH]1)c1ccc2c(c1)-c1ccccc1C2(F)F` [Compound 128, (2S,4R)-1-((9,9-difluoro-9H-fluorene-3-carbonyl)glycyl)-4-(difluoromethoxy)-N-((R)-2-hydroxy-1-(1H-pyrrolo[3,2-c]pyridin-2-yl)ethyl) pyrrolidine-2-carboxamide], the IC50 was over 1000 nM.

As for `C[C@@]12C[C@@H]1N(C(=O)CN1Cc3cc(-c4ccc(F)cc4F)ccc3C1=O)[C@H](C(=O)NCc1cc3cnccc3[nH]1)C2` [Compound 129, (1S,3S,5S)-N-((1H-pyrrolo[3,2-c]pyridin-2-yl)methyl)-2-(2-(5-(2,4-difluorophenyl)-1-oxoisoindolin-2-yl)acetyl)-5-methyl-2-azabicyclo[3.1.0]hexane-3-carboxamide], the IC50 was under 100 nM.

Usually IC50 stands for the point on the concentration scale where inhibition reaches its midpoint.

The values are drawn from patent US20260062443A1 (ALEXION PHARMACEUTICALS, INC., priority 2022, published 2026).
